According to the NIST ThermoML archive (doi:10.1021/je3010535):
Several values for one entry are separate records, joined by “and”; a condition that tells them apart may be missing. Equal entries are not always repeated. ± gives the expanded uncertainty stated by the source.

Test: Henry's Law constant (molality scale); of the first substance listed, at infinite dilution; mn = molality of the nth substance listed, in mol/kg
Conditions: Liquid, Chromatography, m1 = 0

Henry's Law constant (313.15 K) | Henry's Law constant (333.15 K) | SMILES | Henry's Law constant (274.15 K) | Henry's Law constant (296.15 K) | Henry's Law constant (310.15 K) | Henry's Law constant (326.15 K) | Henry's Law constant (331.15 K) | Henry's Law constant (294.65 K) | Henry's Law constant (320.15 K)
2690 kPa·kg/mol | – | CCC(C)c1ccccc1 (centres undefined) [(1-methylpropyl)benzene] + O | 251 kPa·kg/mol | 634 kPa·kg/mol | 1100 kPa·kg/mol | 4160 kPa·kg/mol | 2310 kPa·kg/mol | – | –
2070 ± 830 kPa·kg/mol | – | CC(C)(C)c1ccccc1 [(1,1-dimethylethyl)benzene] + O | 189 ± 75 kPa·kg/mol | 562 ± 220 kPa·kg/mol | 1020 ± 410 kPa·kg/mol | 3330 ± 1300 kPa·kg/mol | 2160 ± 860 kPa·kg/mol | 448 kPa·kg/mol and 554 kPa·kg/mol | –
– | – | Cl/C=C/CCl [(E)-1,3-dichloro-1-propene] + O | 52.9 ± 16 kPa·kg/mol | 153 ± 46 kPa·kg/mol | 300 ± 90 kPa·kg/mol | – | 929 ± 280 kPa·kg/mol | 144 kPa·kg/mol | –
832 ± 250 kPa·kg/mol | – | c1ccccc1 [benzene] + O | 193 ± 58 kPa·kg/mol | 528 ± 160 kPa·kg/mol | 1190 ± 360 kPa·kg/mol | 1410 ± 420 kPa·kg/mol | 2240 ± 670 kPa·kg/mol | 480 kPa·kg/mol and 474 kPa·kg/mol | –
– | – | ClCC(Cl)(Cl)Cl [1,1,1,2-tetrachloroethane] + O | 60.3 ± 18 kPa·kg/mol | 199 ± 60 kPa·kg/mol | 388 ± 120 kPa·kg/mol | 832 ± 250 kPa·kg/mol | 1090 ± 330 kPa·kg/mol | 184 kPa·kg/mol and 168 kPa·kg/mol | –
– | – | ClCC(Cl)Cl [1,1,2-trichloroethane] + O | 16.9 ± 5.1 kPa·kg/mol | 65 ± 20 kPa·kg/mol | 148 ± 44 kPa·kg/mol | – | 419 ± 130 kPa·kg/mol | 62 kPa·kg/mol and 60.4 kPa·kg/mol | 263 ± 79 kPa·kg/mol
– | 136 ± 41 kPa·kg/mol | CCCCC(C)=O [2-hexanone] + O | 0.551 ± 0.17 kPa·kg/mol | 7.07 ± 2.1 kPa·kg/mol | 17.9 ± 5.4 kPa·kg/mol | – | 122 ± 36 kPa·kg/mol | 4.89 kPa·kg/mol and 5.91 kPa·kg/mol | 48.2 ± 14 kPa·kg/mol

SMILES | Henry's Law constant (313.15 K) | Henry's Law constant (333.15 K) | Henry's Law constant (274.15 K) | Henry's Law constant (296.15 K) | Henry's Law constant (310.15 K) | Henry's Law constant (326.15 K) | Henry's Law constant (331.15 K) | Henry's Law constant (294.65 K) | Henry's Law constant (320.15 K)
Clc1ccc(Cl)cc1 [1,4-dichlorobenzene] + O | 476 ± 190 kPa·kg/mol | – | 52.8 ± 21 kPa·kg/mol | 160 ± 64 kPa·kg/mol | 263 ± 110 kPa·kg/mol | 804 ± 320 kPa·kg/mol | 686 ± 270 kPa·kg/mol | 136 kPa·kg/mol and 149 kPa·kg/mol | 451 ± 180 kPa·kg/mol
ClC(Cl)=C(Cl)Cl [tetrachloroethene] + O | 2240 ± 900 kPa·kg/mol | – | 320 ± 130 kPa·kg/mol | 813 ± 330 kPa·kg/mol | 2470 ± 990 kPa·kg/mol | 2750 ± 1100 kPa·kg/mol | 5600 ± 2200 kPa·kg/mol | 755 kPa·kg/mol and 879 kPa·kg/mol | –
